Results: EP0238207B1, “Bactericidal mixtures” (PITMAN-MOORE INC., priority 1986, dated 1987)
Like-named read-outs stand apart in the source and are kept apart here.

Assays:
[1] = test system: Salmonella dublin strain M738; assay: Synergy in experimental bovine salmonellosis, five repeated daily subcutaneous injections (Example 2); format: in vivo, calves; conditions: for Mortality: s.c., five days
Text: In planning the investigation of possible synergy between Compound A and sulphadimidine (SDD), it was decided that seven treatment groups (including an untreated control group) of eight calves each would be necessary, but because of the impossibility of housing this required total number of calves (56) at one time in the available isolation accommodation, it was planned to carry out two duplicate experiments each using seven groups of four calves.
• 1) "Sodium Sulfamethazine Injectable Solution 25%" - Cyanamid. This commercial preparation contained 250 mg/ml of sodium SDD, equivalent to 232 mg/ml of SDD. • 2) Aqueous solution of SDD, 100 mg/ml in dilute NaOH. • 3) Aqueous solution of Compound A, 20 mg/ml as the hydrochloride.
On the day of infection, Day 0, each calf received an oral dose of 50 ml of a log-phase culture of Salmonella dublin strain M738 diluted to contain an estimated 10¹⁰ organisms, using the published technique (White et al 1981a). A viable count on the inoculum was carried out.
On the basis of Day 0 (am) bodyweights the calves were randomly allocated into 7 groups of 4.
Using Day 0 bodyweights, 3 calves of identical weights to the day 0 weights of the 3 eliminated calves were allocated to the appropriate groups, and the remaining […] were randomly allocated to the 7 groups as above.
Administration of compounds in all cases was by subcutaneous injection, using different sides of the animal for Compound A and SDD when both were given in groups 4, 5 and 6. The first of five consecutive daily injections was given 43 hours after […], the other following at 24 hour intervals.

S. dublin strain M738 = assay: MIC by surface growth inhibition method, checkerboard two-fold dilution series; format: cell-based; conditions: for MIC: Salmonella enterica, M738
Experimental: Estimation of the minimum inhibitory concentrations (MICs) of Compound A and SDD, alone and together, was carried out by a surface growth inhibition method, using a "checkerboard" two-fold dilution series, with Compound A and SDD ranges of […] and 256 to 1µg/ml respectively. Thus, including the control plates, a total of 100 different combinations were used. Dilutions were made in Oxoid Isosensitest Agar with plate inoculation by an automatic inoculator using a 2µl inoculum yielding semi-confluent growth over a disc approx. 7 mm diameter. End points were judged to be the lowest concentrations completely or almost completely inhibiting growth.

[2] = Serum concentrations in infected calves (Bratton-Marshall method for sulphonamide, bio-assay for Compound A); format: in vivo
Experimental: Blood samples for assay of sulphonamide by the Bratton-Marshall method and for Compound A by bio-assay were collected before and 24 hours after the first injection, 2, 5 and 24 hours after the second injection, 24 hours after the fourth injection and 2, 5 and 24 hours after the fifth injection.

S.dublin = assay: Treatment of acute salmonellosis in calves, compound administered alone; format: in vivo; conditions: administered alone at dosages of up to 6 mg/kg
a range of organisms = conditions: against a range of organisms; cited from earlier work
[3] = cattle older than about six weeks; cited from earlier work

Cc1cc(Cc2cnc(N)nc2N)c2cccnc2c1N(C)C [Compound A, 2,4-diamino-5-(8-dimethylamino-7-methyl-5-quinolylmethyl) pyrimidine]
Mortality ([1]; Group 3: Compound A alone 6 mg/kg daily): 5 out of 8 | therapeutic effect ([1]; Group 3: Compound A alone at 6 mg/kg daily): ineffective | growth at 24 hours (S. dublin strain M738; Compound A 0.002 µg/ml, SDD 0 µg/ml): + | growth at 24 hours (S. dublin strain M738; Compound A 0.004 µg/ml, SDD 0 µg/ml): + | growth at 24 hours (S. dublin strain M738; Compound A 0.008 µg/ml, SDD 0 µg/ml): + | growth at 24 hours (S. dublin strain M738; Compound A 0.016 µg/ml, SDD 0 µg/ml): + | growth at 24 hours (S. dublin strain M738; Compound A 0.032 µg/ml, SDD 0 µg/ml): + | growth at 24 hours (S. dublin strain M738; Compound A 0.064 µg/ml, SDD 0 µg/ml): + | growth at 24 hours (S. dublin strain M738; Compound A 0.128 µg/ml, SDD 0 µg/ml): + | growth at 24 hours (S. dublin strain M738; Compound A 0.256 µg/ml, SDD 0 µg/ml): - | growth at 24 hours (S. dublin strain M738; Compound A 0.512 µg/ml, SDD 0 µg/ml): - | MIC (S. dublin strain M738; each substance alone, Oxoid Isosensitest Agar, read-out: MIC): 0.256 µg/mL | serum concentrations of Compound A ([2]; Group 3: Compound A alone at 6 mg/kg daily s.c.): > 0.256 µg/mL | effect in treating acute salmonellosis (S.dublin) in calves (S.dublin): ineffective | in vitro antibacterial activity (a range of organisms): good

Cc1cc(C)nc(NS(=O)(=O)c2ccc(N)cc2)n1 [SDD, sulphadimidine]
therapeutic effect ([1]; Group 1: SDD alone 200/100 mg/kg daily): therapeutically ineffective | clinical recovery of surviving calves ([1]; Group 1: SDD alone 200/100 mg/kg, three surviving calves): very slow clinical recovery | bodyweight of surviving calves ([1]; Group 1: SDD alone 200/100 mg/kg, three surviving calves, Day 21 versus Day 0): none had regained its Day 0 bodyweight by Day 21 | Mortality ([1]; Group 1: SDD alone, first dose 200 mg/kg, subsequent doses 100 mg/kg daily): 5 out of 8 | Mortality ([1]; Group 2: SDD alone 30 mg/kg daily): 5 out of 8 | growth at 24 hours (S. dublin strain M738; Compound A 0 µg/ml, SDD 1 µg/ml): + | growth at 24 hours (S. dublin strain M738; Compound A 0 µg/ml, SDD 2 µg/ml): + | growth at 24 hours (S. dublin strain M738; Compound A 0 µg/ml, SDD 4 µg/ml): + | growth at 24 hours (S. dublin strain M738; Compound A 0 µg/ml, SDD 8 µg/ml): + | growth at 24 hours (S. dublin strain M738; Compound A 0 µg/ml, SDD 16 µg/ml): + | growth at 24 hours (S. dublin strain M738; Compound A 0 µg/ml, SDD 32 µg/ml): + | growth at 24 hours (S. dublin strain M738; Compound A 0 µg/ml, SDD 64 µg/ml): + | growth at 24 hours (S. dublin strain M738; Compound A 0 µg/ml, SDD 128 µg/ml): - | growth at 24 hours (S. dublin strain M738; Compound A 0 µg/ml, SDD 256 µg/ml): - | MIC (S. dublin strain M738): 128 µg/mL | serum concentrations of SDD ([2]; Group 1: SDD alone 200/100 mg/kg daily s.c., throughout the dosing period): > 128 µg/mL

COc1cc(Cc2cnc(N)nc2N)cc(OC)c1OC [trimethoprim]
oral bioavailability [3]: very poor
